Measurements reported in patent US9717671B2, “Composition for improving skin, hair and coat health containing flavanones” (Nestec S.A., priority 2003, dated 2017).

Key:
[1] = system: Human immortalized keratinocytes (HaCaT); experiment: Cytotoxicity assay (LDH activity in supernatant as a measure for cell death); assay type: cell-based; settings: for cell death (LDH activity): normal culture conditions (without menadione)
Method: FIG. 1: HaCat cells were incubated with 10 μM hesperetin (hp, red bars) or low 10 μM hesperetin-7-O-glucuronide (hp-7-O-gluc, yellow bars) or equal amounts of DMSO as a control (blue bars) and treated with or without menadione for additional 5 h. The supernatant was analyzed for lactate dehydrogenase (LDH) activity and results were expressed relative to cells which were lysed with Triton X-100® before analysis (100% death). Human immortalized keratinocytes (HaCaT) were incubated with 10 μM hesperetin, 10 μM hesperetin-7-O-glucuronide or equal amounts of DMSO as a negative control for 16 h and 1 h before challenge. Cells were then treated with 100 μM menadione, a xenobiotic which generates reactive oxygen species intracellularly. Non-menadione treated cells were used as a positive control. After 5 h the supernatant was analysed for lactate dehydrogenase (LDH) activity as a measure for cell death using the CytoTox 96 non-radioactive cytotoxicity assay (Promega, USA).

CD1d1 antigen = experiment: Real-time PCR of rat skin total RNA, CD1d1 expression; assay type: in vivo, female wistar rats; settings: vs control diet
Method: (§1) FIG. 4: Real-time PCR analysis of total RNA isolated from rat skin fed either a control diet (ctrl) or a hesperidin-supplemented diet (0.1% Hp, 0.5% Hp) for the expression of CD1d1 and interleukin 6 (IL-6). Samples were analyzed in 3 pools containing 4 rats each and obtained Ct values are shown for CD1d1 in A and IL-6 in B. Dots represent averages of technical triplicates, bars the total average per group. Fold changes in relative expression of the supplementation compared to control diet and relative to a housekeeping gene are shown in C. The control diet was set to 1 fold and is represented by a thick line. Confident intervals were calculated using ANOVA.
(§2) Rat skin biopsies were obtained from the Heperidin growth trial (FIG. 2). Dorsal skin was excised, one part was fixed in 4% PFA and paraffin embedded, one part was cryo-preserved and another part was immediately frozen in liquid nitrogen.
(§3) Skin samples were homogenized with Lysing Matrix D, total RNAs were extracted using the ToTally RNA™ Kit following the manufacturer's instructions. RNA was eluted with 40 μl of nuclease-free water.
(§4) The quantification was performed using the Ribogreen® RNA quantitation Kit on 96-well plates and a fluorescence microplate reader according to the manual. Measurements were done in duplicate. The samples were diluted either 1:680 or 1:3400 in a final volume of 100 μl 1×TE buffer. […]
(§5) Data were analysed by ANOVA. […]

interleukin 6 (IL-6) = experiment: Real-time PCR of rat skin total RNA, IL-6 expression; assay type: in vivo, female wistar rats; settings: rats fed 0.5% hesperidin diet, vs control diet
Method: as §1, §2, §3, §4, §5

rat skin = experiment: Histopathological analysis of rat skin, hesperidin growth trial; assay type: in vivo, female wistar rats; settings: rats fed hesperidin diet (0.1% and 0.5%) from weaning to 12 weeks of age, vs control diet
Excerpt: FIG. 3: Histopathological analysis of rat skin supplemented with hesperidin. 6 μm paraffin sections were de-waxed, stained with hematoxylin/eosin and mounted. Representative images in two magnifications are shown for the control group (A and D) and the groups supplemented with hesperidin (0.1%: B and E, 0.5% C and F).
as §2
Rat skin was dissected and fixed for 4 days in 4% paraformaldehyde in PBS (pH 7.4) at 4° C. and embedded in paraffin using a Leica Microsystem embedding apparatus. The tissues were washed in PBS and saline (0.9% NaCl) and dehydrated by passing them through saline solutions with increasing ethanol concentrations: 30 min each in 30%, 50%, 70%, 90%, 99%, 100% and an additional hour in 100%. Tissue samples were incubated twice for 30 min in xylene, followed by 2-3 h and 3 h incubations in paraffin wax at 60° C. 6 μm thick paraffin sections were cut using a Leica Microtome. Sections were de-waxed 5 min in xylene and dehydrated by passing them through a series of solutions with decreasing ethanol concentrations: 1 min each in 100%, 96%, 90%, 80%, 70%, and 50% ethanol. Finally, they were transferred into destilled water and stained. […]

Row | SMILES | potency of protective effect compared to the aglycone ([1]; 10 μM each, FIG. 1) | protective effect against cell death (LDH activity) ([1]; 10 μM, challenged with 100 μM menadione for 5 h, vs DMSO control) | cell death (LDH activity) ([1]; 10 μM, vs DMSO control) | CD1d1 mRNA levels in skin (CD1d1 antigen; rats fed 0.1% hesperidin diet) | CD1d1 mRNA levels in skin (CD1d1 antigen; rats fed 0.5% hesperidin diet) | IL-6 mRNA levels in skin (interleukin 6 (IL-6)) | number of inflammatory cells in skin (histopathology) (rat skin)
1 | COc1ccc([C@@H]2CC(=O)c3c(O)cc(O[C@@H]4O[C@H](C(=O)O)[C@@H](O)[C@H](O)[C@H]4O)cc3O2)cc1O [hesperetin-7-O-glucuronide] | more potent compared to hp | even more pronounced | reducing cell death | – | – | – | –
2 | COc1ccc([C@@H]2CC(=O)c3c(O)cc(O)cc3O2)cc1O [hesperetin] | – | – | reducing cell death | – | – | – | –
3 | COc1ccc([C@@H]2CC(=O)c3c(O)cc(O[C@@H]4O[C@H](CO[C@@H]5O[C@@H](C)[C@H](O)[C@@H](O)[C@H]5O)[C@@H](O)[C@H](O)[C@H]4O)cc3O2)cc1O [hesperidin] | – | – | – | significantly decreased | significantly decreased | significantly reduced | reduced number of inflammatory cells
